{
  "source": "patent US20210063414A1",
  "about": "“METHODS FOR PREVENTING AND/OR TREATING BONE LOSS CONDITIONS BY MODULATING IRISIN” (Dana-Farber Cancer Institute, Inc., priority 2018, published 2021)",
  "target": "T1, integrin αV/β5 (Homo sapiens, UniProt P06756+P18084)",
  "T1 construct": "expressed in transfected cells; host or cells: HEK293T",
  "T1 sequence (P06756 31-889 limits assumed)": "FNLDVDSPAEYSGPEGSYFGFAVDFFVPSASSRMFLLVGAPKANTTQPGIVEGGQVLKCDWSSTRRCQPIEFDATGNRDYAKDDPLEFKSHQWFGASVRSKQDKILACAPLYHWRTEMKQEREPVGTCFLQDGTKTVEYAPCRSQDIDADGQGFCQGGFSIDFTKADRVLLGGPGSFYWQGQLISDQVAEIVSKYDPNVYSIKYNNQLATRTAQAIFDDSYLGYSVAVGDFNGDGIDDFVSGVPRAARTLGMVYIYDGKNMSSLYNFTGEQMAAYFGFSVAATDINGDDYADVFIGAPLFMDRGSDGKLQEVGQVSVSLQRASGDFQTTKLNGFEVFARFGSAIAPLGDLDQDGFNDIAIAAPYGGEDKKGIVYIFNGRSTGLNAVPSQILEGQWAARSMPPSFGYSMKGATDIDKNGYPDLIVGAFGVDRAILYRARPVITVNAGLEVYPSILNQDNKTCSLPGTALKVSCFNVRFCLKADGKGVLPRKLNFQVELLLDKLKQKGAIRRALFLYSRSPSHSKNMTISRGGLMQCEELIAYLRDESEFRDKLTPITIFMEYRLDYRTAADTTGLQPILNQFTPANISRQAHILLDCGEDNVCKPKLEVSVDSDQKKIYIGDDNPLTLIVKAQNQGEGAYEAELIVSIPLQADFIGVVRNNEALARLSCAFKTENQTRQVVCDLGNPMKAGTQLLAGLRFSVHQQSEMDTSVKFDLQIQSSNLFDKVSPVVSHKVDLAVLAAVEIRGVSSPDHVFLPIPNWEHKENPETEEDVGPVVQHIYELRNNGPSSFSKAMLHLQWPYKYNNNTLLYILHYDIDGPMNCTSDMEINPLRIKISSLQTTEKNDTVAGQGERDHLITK",
  "T1 sequence (P06756 891-1048 partner limits assumed)": "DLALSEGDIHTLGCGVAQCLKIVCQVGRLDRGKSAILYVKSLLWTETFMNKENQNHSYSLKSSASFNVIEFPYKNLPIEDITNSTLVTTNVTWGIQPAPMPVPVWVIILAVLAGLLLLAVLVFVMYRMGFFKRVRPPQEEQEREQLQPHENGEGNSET",
  "T1 sequence (P18084 24-799)": "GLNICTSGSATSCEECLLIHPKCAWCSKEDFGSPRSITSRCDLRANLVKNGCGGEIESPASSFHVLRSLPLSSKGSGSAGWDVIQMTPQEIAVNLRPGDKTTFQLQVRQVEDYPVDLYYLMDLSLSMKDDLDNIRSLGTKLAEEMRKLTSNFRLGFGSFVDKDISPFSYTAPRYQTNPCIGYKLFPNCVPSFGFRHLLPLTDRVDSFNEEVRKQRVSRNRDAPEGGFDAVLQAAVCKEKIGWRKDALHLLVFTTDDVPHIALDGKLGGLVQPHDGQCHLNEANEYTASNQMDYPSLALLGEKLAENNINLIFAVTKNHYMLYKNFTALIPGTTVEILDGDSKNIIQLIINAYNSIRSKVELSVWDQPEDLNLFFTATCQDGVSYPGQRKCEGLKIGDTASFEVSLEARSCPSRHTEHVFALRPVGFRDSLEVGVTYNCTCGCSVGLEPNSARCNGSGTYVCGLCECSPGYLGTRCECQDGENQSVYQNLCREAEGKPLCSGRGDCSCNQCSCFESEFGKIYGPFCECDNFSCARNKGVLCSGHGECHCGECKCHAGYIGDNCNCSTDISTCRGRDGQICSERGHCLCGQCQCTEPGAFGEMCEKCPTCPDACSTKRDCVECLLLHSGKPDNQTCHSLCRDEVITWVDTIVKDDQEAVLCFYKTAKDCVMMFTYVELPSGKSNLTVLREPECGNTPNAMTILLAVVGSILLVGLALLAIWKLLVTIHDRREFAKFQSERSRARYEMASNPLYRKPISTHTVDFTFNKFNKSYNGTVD",
  "assay": "FAK phosphorylation in HEK293T cells with forced expression of integrin αV/β5",
  "type": "cell-based",
  "method": "100 nM irisin was incubated with 5 nM indicated his-tag integrins followed by immunoprecipitation using Ni-NTA agaroses. Precipitated integrins and co-precipitated irisin were analyzed by immunoblot analysis. […] HEK293T cells were seeded and incubated until 50% cell density. The cells were transfected with 0.1 μg plasmids of indicated integrins. After 48 hours, the cells were incubated with Freestyle293 medium for 3 hours and were treated with indicated concentration of irisin for 5 minutes. Cells were lysed to detect the indicated protein level using immunoblot analysis. […] MLO-Y4 cells were treated as described in FIG. 2D with addition of pretreatment of indicated antagonistic antibodies for 10 minutes. Cells were lysed to detect the indicated protein level using immunoblot analysis. […] MLO-Y4 cells were treated as described in FIG. 1B except with addition of the pretreatment of indicated antagonistic antibodies for 10 minutes. Sclerostin mRNA level was analyzed by qRT-PCR. Cyclophilin was used for house-keeping gene. […] The ribbon diagram is colored by HDX stabilization/destabilization. Percentages of deuterium differences are color-coded according to the smooth color gradient key at the bottom. Crystal structure of irisin dimer is from Protein Data Bank (PDB) (4 lsd) and a homology model of integrin β5 was built based on integrin β3 structure from PDB (4MMX).\n100 nM irisin was incubated with 5 nM indicated his-tag integrins followed by immunoprecipitation using Ni-NTA agaroses. Precipitated integrins and co-precipitated irisin were analyzed by immunoblot analysis. […] HEK293T cells were seeded and incubated until 50% cell density. The cells were transfected with 0.1 μg plasmids of indicated integrins. After 48 hours, the cells were re-split to indicated dose of vitronectin-coated plates. Cells were incubated with culture medium for 3 hours. Cells were lysed to detect the indicated protein level using immunoblot analysis. FIG. 15C and FIG. 15D show the immunoblot data. Cells were treated and analyzed as FIG. 14B except using plasmids encoding integrin α5/β1 or integrin α11/β1 (FIG. 15C) integrin αV/β1(FIG. 15D).\nMLO-Y4 cells were treated and analyzed as described in FIG. 5A with addition of pretreatment of control RGD peptide, cyclo RGDyK (cRGDyK), or SB273005. […] HEK293 cells were treated and analyzed as described in FIG. 14B except the treatment of different dose of cyclo RGDyK. […] 8 weeks old male mice were treated and analyzed as described in FIG. 5D except the additional group with co-injection of 1 mg/kg SB273005. […]\nCells were harvested in RIPA buffer containing protease-inhibitor cocktail and phosphataseinhibitor cocktail. […] Protein levels were analyzed via western blot using indicated antibody. […]",
  "data": [
    {"smiles": "N=C(N)NCCC[C@@H]1NC(=O)[C@H](CCCCN)NC(=O)[C@@H](Cc2ccc(O)cc2)NC(=O)[C@H](CC(=O)O)NC(=O)CNC1=O", "note": "[cyclo RGDyK]", "values": [
      {"measurement": "effect on irisin-induced phosphorylation of FAK", "setting": "HEK293T integrin αV/β5, 10 nM cyclo RGDyK", "result": "prevented phosphorylation of FAK significantly"},
      {"measurement": "effect on irisin-induced phosphorylation of FAK", "setting": "HEK293T integrin αV/β5, 100 nM cyclo RGDyK", "result": "blocked the phosphorylation completely"},
      {"measurement": "IC50", "setting": "HEK293T with forced expression of integrin αV/β5, in the presence of irisin, from immunoblot, read-out: IC50 for blocking irisin-integrin αV/β5 signaling (phosphorylation of FAK)", "result": "0.01 to 0.05", "unit": "µM"}
    ]}
  ]
}
